Assay results as given in ChEMBL document CHEMBL4387767, “Synthesis of carbazoloquinone derivatives and their antileukemic activity via modulating cellular reactive oxygen species” (Bioorg Med Chem Lett, 2019).
Activity calls are given as the source filed them. No cut-off for these calls is given here.

Legend:
HL-60 [1] = test: Cytotoxicity against human HL60 cells assessed as cell viability at 10 uM measured after 48 hrs by CCK8 assay relative to control; type: functional; conditions: HL-60, 48 h, read-out: Activity
HL-60 [2] = test: Cytotoxicity against human HL60 cells assessed as reduction in cell viability measured after 48 hrs by CCK8 assay; type: functional, cell-based; conditions: HL-60, 48 h
HL-60 [3] = test: Induction of reactive oxygen species generation in human HL60 cells assessed as increase in intracellular ROS level at 1 uM measured after 2 hrs by NBT dye-based assay relative to control; type: functional
HL-60 [4] = test: Induction of reactive oxygen species generation in human HL60 cells assessed as increase in extracellular ROS level at 1 uM measured after 2 hrs by NBT dye-based assay; type: functional, cell-based
HL-60 [5] = test: Induction of apoptosis in human HL60 cells assessed as chromatin crenation at 1 uM measured after 24 hrs by Hoechst 33342 staining based fluorescence microscopic method; type: functional, cell-based
HL-60 [6] = test: Induction of apoptosis in human HL60 cells assessed as chromatin condensation at 1 uM measured after 24 hrs by Hoechst 33342 staining based fluorescence microscopic method; type: functional, cell-based
HL-60 [7] = test: Induction of apoptosis in human HL60 cells assessed as chromatin fragmentation at 1 uM measured after 24 hrs by Hoechst 33342 staining based fluorescence microscopic method; type: functional, cell-based

Compound	viability at 10 µM (HL-60 [1])	IC50 (HL-60 [2]; read-out: IC50)	also measured
COc1ccc2c3c([nH]c2c1)C(=O)C=C(C)C3=O	< 20%	1210 nM	–
O=C1c2ccccc2C(=O)c2c1sc1ccccc21	–	> 50000 nM	–
O=C1c2ccccc2C(=O)c2c1oc1ccccc21	–	410 nM	fold change (FC) (HL-60 [3]): 2.3 - 2.4; Activity (HL-60 [4]): Active; Activity (HL-60 [5]): Active; Activity (HL-60 [6]): Active; Activity (HL-60 [7]): Active
COc1cc2[nH]c3c(c2cc1OC)C(=O)C(C)=CC3=O	< 20%	550 nM	–
O=C1c2ccccc2C(=O)c2c1[se]c1ccccc21	–	> 50000 nM	–
CC1=CC(=O)c2[nH]c3ccc(C(F)(F)F)cc3c2C1=O	< 20%	590 nM	–
CC1=CC(=O)c2c([nH]c3ccccc23)C1=O	< 20%	290 nM	–
COc1ccc2[nH]c3c(c2c1)C(=O)C=C(C)C3=O	< 20%	5060 nM	–
COc1ccc2[nH]c3c(c2c1)C(=O)C(C)=CC3=O	< 20%	3110 nM	–
O=C1c2ccccc2C(=O)c2c1[nH]c1ccccc21 [BENZOCARBAZOLEDIONE]	–	> 50000 nM	Activity (HL-60 [3]): Active
CC1=CC(=O)c2[nH]c3ccccc3c2C1=O [MURRAYAQUINONE A]	< 20%	730 nM	fold change (FC) (HL-60 [3]): 2.3 - 2.4; Activity (HL-60 [4]): Active; Activity (HL-60 [5]): Active; Activity (HL-60 [6]): Active; Activity (HL-60 [7]): Active
CC1=CC(=O)c2[nH]c3ccc(Cl)cc3c2C1=O	< 20%	240 nM	–
O=c1[nH]cc(F)c(=O)[nH]1 [FLUOROURACIL]	–	–	IC50 (HL-60 [2]): 42800 nM
